This note sets out measurements from patent US20210317111A1, “NOVEL MEDICAMENT FOR TREATING INFLAMMATORY BOWEL DISEASE” (OTSUKA PHARMACEUTICAL CO., LTD., priority 2018, published 2021).

≈ marks a conversion by molar mass, not a printed value.

Assay [1] has as its system Mycobacterium avium subspecies paratuberculosis (MAP). The assay is described as follows: antibacterial activity (MIC), broth microdilution method. It is filed as cell-based. To be noted: 336 h. As to the method:
The chronic enterocolitis of ruminants which is caused by Mycobacterium avium subspecies paratuberculosis (MAP) is similar to Crohn's disease. […] Thus, the antibacterial activity of the present compound against MAP was evaluated. The used comparative drugs for the present compound were rifaximin (RFX), ciprofloxacin (CPFX), metronidazole (MTZ), clarithromycin (CAM), rifabutin (RBT), and clofazimine (CFZ).
The antibacterial activity (minimum inhibitory concentration (MIC)) was assayed by broth microdilution method which is based on Clinical and laboratory standards institute (CLSI).
The 5 strains of MAP were inoculated onto Middlebrook 7H9 agar containing 10% dubos oleic albumin complex (OADC), Tween 80 (0.5 g/L), mycobactin J (2 mg/L), and 1.5% agar, and pre-cultured at 37° C. under an aerobic condition for 14 days. After the pre-culture, the bacterial cell was scraped out from the agar, and prepared to the turbidity of 0.5 Mcfarland standard using Middlebrook 7H9 broth containing 10% dubos oleic albumin complex (OADC), Tween 80 (0.5 g/L), and mycobactin J (2 mg/L)]. The 10-fold diluted solution of the bacterial suspension was inoculated onto Middlebrook 7H9 broth 96-well plate which contains the present compound or any one of the comparative drugs, and incubated at 37° C. under an aerobic condition for 14 days.
After the incubation, the bacterial growth in each well of the 96-well plate was visually checked. The minimum concentration at which the bacterial growth was not observed, compared with the result of the well containing neither present compound nor comparative drug was determined as MIC of the present compound or each comparative drug against each test bacterium.

Assay [2] relates to proliferated T cell. Nature of the assay: T-cell proliferation (CFSE) in stimulated PBMC. To be noted: both CD4-positive and CD8-positive T-cell; 2 days. The class given is cell-based, human. On the procedure: Peripheral blood (30 mL) derived from a healthy adult was layered on a lymphocyte tube Leucosep™ containing Lymphoprep (15 mL), and the tube was centrifuged at room temperature at 2000 rpm for 20 minutes. After the centrifugation, the upper 5 mL of the plasma was removed from the peripheral blood mononuclear cell (PBMC) layer with an aspirator, and the left solution containing the PBMC layer was collected into a new 50 mL tube. To the collected solution was added an equal amount of Hanks' balanced salt solution (HBSS) to dilute the cell suspension. The diluted solution was centrifuged at 4° C. at 1800 rpm for 5 minutes. After the centrifugation, the supernatant was discarded, the rest was suspended in 10 mL of AIM-V. The suspension was centrifuged at 4° C. at 1500 rpm for 5 minutes, and the supernatant was discarded. The same washing process was repeated one more time. After the centrifugation, the supernatant was discarded, and the obtained cell was suspended in 5% FBS-containing AIM-V to be used in the following tests. […]

Assay [3] deals with naive T cell transfer model of colitis. The assay is described as follows: naive T cell transfer model of colitis (Crohn's disease mouse model), histological scoring of large intestine. It is filed as in vivo. The text has this:
From spleen of Balb/c mouse, naive T cell (CD4+CD62L+CD44−) was isolated with antibody-coated magnetic beads. The isolated naive T cell (5×10^5 cells/mouse) was transplanted in abdominal cavity of SCID mouse which is a severe combined immunodeficiency animal. The present compound was orally administered to the mouse once a day at each dose defined in Table 1 below, from the first day of the transplantation for Test 1, or from the 2nd week after the transplantation for Test 2, until 5 weeks after the transplantation. [table] […] The anti-TNF-α antibody was intraperitoneally administered to the mouse twice a week at each dose defined in Table 2 below, from the 2nd week after the transplantation, for 2 weeks. [table] At 5th week for Tests 1 and 2, and at 4th week for Test 3, the large intestine was removed, and the length and weight of the large intestine were measured. In addition, the large intestine was fixed with formalin to carry out pathological analysis. From the removed large intestine, the anus part, the center part, and the cecal part were cut out each in about 0.5 cm, and each part was fixed with formalin. The paraffin block thereof was prepared, sliced, and subjected to H&E staining. The H&E stained slice was examined with a microscope to score it histologically. The histological scoring was carried out by scoring the inflammatory cell infiltrate, the Goblet cell loss, and the hyperplasia of mucosal epithelium, based on the standard (0-4) defined in Table 3 below. [table]

Assay [4] concerns IFN-γ. Nature of the assay: IFN-γ production by stimulated PBMC (ELISA). It is filed as cell-based. The note with it: stimulated human PBMC, 3 days, culture supernatant. As to the method:
Peripheral blood (30 mL) derived from a healthy adult was layered on a lymphocyte tube Leucosep™ containing Lymphoprep (15 mL), and the tube was centrifuged at room temperature at 2000 rpm for 20 minutes. After the centrifugation, the upper 5 mL of the plasma was removed from the peripheral blood mononuclear cell (PBMC) layer with an aspirator, and the left solution containing the PBMC layer was collected into a new 50 mL tube. To the collected solution was added an equal amount of Hanks' balanced salt solution (HBSS) to dilute the cell suspension. The diluted solution was centrifuged at 4° C. at 1800 rpm for 5 minutes. After the centrifugation, the supernatant was discarded, the rest was suspended in 10 mL of AIM-V. The suspension was centrifuged at 4° C. at 1500 rpm for 5 minutes, and the supernatant was discarded. The same washing process was repeated one more time. After the centrifugation, the supernatant was discarded, and the obtained cell was suspended in 5% FBS-containing AIM-V to be used in the following tests.
To 96-well round-bottom plate were added 100 μL of medium containing the compound, 100 μL (0.5×10^5 beads) of anti-CD3/CD28/CD2-loaded bead suspension (Miltenyi), and 100 μL (1×10^5 cells) of PBMC suspension. The mixture was incubated at 37° C. in 5% CO2 for 3 days.

In assay [5] the test system is TNBS-induced enteritis. The assay is described as follows: TNBS-induced enteritis model. It is filed as in vivo, rat. As to the method: An enteritis animal model induced with 2,4,6-trinitrobenzenesulfonic acid (TNBS) is widely used as Crohn's disease model since the inflammatory finding is pathologically similar to that of human Crohn's disease. In addition, the enteritis model was used in the non-clinical study of mesalazine that is a medicament for treating Crohn's disease. Thus, this enteritis model was used as Crohn's disease model for evaluating the present compound.
Rats were made to be fasted for 24 or 48 hours, and the body weight were measured. The rats were laparotomized under isoflurane anesthesia, and 50% ethanol (0.25 mL) containing 60 mg/mL 2,4,6-trinitrobenzenesulfonic acid (TNBS) was injected into the large intestine from the cecum side toward the anal side to induce the injury. Each group composed of 12 rats was set, and vehicle, the present compound, or salazosulfapyridine (SASP) which is an already-existing drug for treating inflammatory bowel disease were administered for 7 days from the first day after the injection of TNBS. On the 8th day, each rat was laparotomized under anesthesia and killed by exsanguination. The large intestine was removed from the anus to the cecum, the large intestine was longitudinally incised, and the incised large intestine was washed with a cold saline. The lesion area of the large intestine was photographed with a digital camera. The area of the lesion area in the photograph of the large intestine was measured using image analyzing program.
Each compound was orally administered at a dose of 100 mg/kg twice a day from one day after inducing enteritis with TNBS. Each area of the lesion area on the 8th day was compared.

In assay [1], `Cc1c(-c2cnc(N)c(C#N)c2)c(F)cc2c(=O)c(C(=O)O)cn(C3CC3)c12` [the present compound, 7-(6-amino-5-cyanopyridin-3-yl)-1-cyclopropyl-6-fluoro-1,4-dihydro-8-methyl-4-oxo-3-quinoline-carboxylic acid] yielded an MIC of 0.06 to 0.5 µg/mL (≈ 0.159 to 1.32 µM). For the same compound, in assay [2], the “inhibition of T cell proliferation (MFI CFSE)” value is recorded as “effect of cell growth inhibition”. Also, the “histological score (Test 1, preventive effect)” value in assay [3] (2.5 mg/kg or more, oral once a day from first day of transplantation until 5 weeks, vs solvent control) is given as “inhibited the increase of the histological score”. For the same compound, the “histological score (Test 2, therapeutic effect)” value in assay [3] (5 mg/kg or more, oral once a day from 2nd week after transplantation until 5 weeks, vs solvent control) is recorded as “significantly inhibited the increase of the histological score”. In addition, the “histological score (Test 3, comparative study)” value in assay [3] (from 2nd week after transplantation for 2 weeks, present compound, CPFX, RFX oral once a day 10 mg/kg, antibody 25 mg/kg i.p. twice a week, 4th week) was “potent inhibitory effect at the same level as Normal group”. Moreover, the “cytokine production (IFN-γ)” value in assay [4] was “decreased”. In addition, the “area of the lesion area of the large intestine” value in assay [5] (100 mg/kg orally twice a day for 7 days, 8th day, vs vehicle control, P<0.01 t-test) is “significantly inhibited the area of lesion”. Also, in assay [5] (100 mg/kg orally twice a day, 12 rats per group), the “number of death during the treatment” value was “decreased the number of death”.
